Data set [1] relates to transgenic mice carrying the human apo A-I gene. As to the kind of experiment: Transgenic mice carrying the human apo A-I gene. The class given is in vivo. Conditions: transgenic mouse model. The source says:
Mice transgenic for the human apolipoprotein A-I gene (obtained from Jackson Laboratory) are used to evaluate PPARγ mediated effects on high density lipoprotein (HDL) cholesterol. The mice are handled as described above for db/db mice, except that they are fed Purina 5001.

The next data set concerns rodent models of NIDDM. As to the kind of experiment: Rodent models of NIDDM. The class given is in vivo. The source says:
Rodents that are genetically defective in the leptin pathway are commonly used as animal models of non-insulin dependant diabetes mellitus (NIDDM). db/db mice and ZDF rats develop frank diabetes that progresses to include β-cell failure and the accompanying precipitous drop in plasma insulin levels. […] All three rodent models were used to examine the efficacy of oral dosing with compounds of the invention on diabetes, insulin sensitivity, food consumption and body weight gain.
Mice (obtained from Jackson Laboratory), ZDF rats (obtained from Genetic Models Inc.) and fa/fa rats (obtained from either Charles River, or Harlan) are maintained on 12-hour light/dark cycle. Mice (age 28-42 days) are caged in groups of 5-6. Rats (age 7 weeks) are housed individually. All animals are allowed ad libitum access to water and food (Purina 5015 for mice and 5008 for rats). Compounds are administered at the specified doses by oral gavage on the morning of each day of any experiment. Blood samples are obtained 3 hours after dosing from fed animals under anesthesia and collected into heparinized capillary tubes from the tail vein.

The next data set concerns db/db mice. As to the kind of experiment: db/db mice, oral dosing. The format is in vivo, mouse. Particulars: 7 week old db/db mice, 300 mg/kg by daily oral gavage.

As for `Cc1cc2c(cc1C1(c3ccc(C(=O)O)cn3)CC1)C(C)(C)CCC2(C)C` [LG100268, 6-[1-(3,5,5,8,8-pentamethyl-5,6,7,8-tetrahydronaphthalen-2-yl)cyclopropyl]nicotinic acid], the Triglycerides result in data set [1] is listed as “raises triglycerides”. Also, in the data set on rodent models of NIDDM, the Blood glucose levels result is “lower blood glucose levels”, the Thyroid hormone axis entry is listed as “suppress the thyroid hormone axis” and the Triglycerides result is “raise triglycerides”.
For the molecule `CN(C)C(=N)N=C(N)N` [metformin], the Plasma glucose result in the data set with db/db mice is given as “lowers plasma glucose”.

The values are drawn from patent US20040248919A1, “Fluorinated trienes and their use as rxr modulators” (priority 2001, published 2004).
